The text below walks through data of patent publication US8633226B2, “Piperidinyl derivative as a modulator of chemokine receptor activity” (Bristol-Myers Squibb Company, priority 2008, dated 2014).

One data set is described as follows: Protein binding, rabbit. The data set is classed as in vitro ADME.
The next data set is described as follows: Protein binding, human. The data set is classed as in vitro ADME.
The target of another data set is hERG (Homo sapiens (Human), UniProt Q12809). As to the kind of experiment: hERG patch clamp assay. To be noted: HEK-293 cells stably expressing hERG, pH 7.4, protein-free buffer, read-out: hERG, % inh @ 30 μM. The data set is classed as cell-based. The procedure: Whole-cell patch-clamp was used to directly measure hERG tail currents in HEK-293 cells stably expressing the cloned hERG potassium channel α subunit. Effects of compounds were calculated by measuring inhibition of peak tail current. Experiments were carried out using an aqueous buffer with pH 7.4 at room temperature. There was no protein in the assay buffer. The test concentrations reported are nominal free drug levels.
(The hERG channel carries a current that helps repolarise heart muscle cells.)

Data set [1] addresses human cardiac L-type Ca channel (α1C) and its β subunit (Homo sapiens (Human), UniProt Q13936). As to the kind of experiment: L-type calcium channel whole-cell patch-clamp assay. As to conditions: 30 μM, HEK-293 cells, protein-free buffer. The format is cell-based. The procedure: In addition to the potential for interaction with the L-type calcium channel, whole-cell patch-clamp was used to directly measure inward calcium currents in HEK-293 cells stably expressing the cloned human cardiac L-type Ca channel (α1C) and its β subunit. Effects of compounds were calculated by measuring inhibition of peak current. Experiments were carried out using an aqueous buffer at pH 7.4 and at room temperature. There is no protein in the buffer and drug concentrations reported are nominal free drug levels.
A general note: The patch-clamp technique gives a direct electrical read-out from membranes.

hERG, sequence (Q12809 whole entry): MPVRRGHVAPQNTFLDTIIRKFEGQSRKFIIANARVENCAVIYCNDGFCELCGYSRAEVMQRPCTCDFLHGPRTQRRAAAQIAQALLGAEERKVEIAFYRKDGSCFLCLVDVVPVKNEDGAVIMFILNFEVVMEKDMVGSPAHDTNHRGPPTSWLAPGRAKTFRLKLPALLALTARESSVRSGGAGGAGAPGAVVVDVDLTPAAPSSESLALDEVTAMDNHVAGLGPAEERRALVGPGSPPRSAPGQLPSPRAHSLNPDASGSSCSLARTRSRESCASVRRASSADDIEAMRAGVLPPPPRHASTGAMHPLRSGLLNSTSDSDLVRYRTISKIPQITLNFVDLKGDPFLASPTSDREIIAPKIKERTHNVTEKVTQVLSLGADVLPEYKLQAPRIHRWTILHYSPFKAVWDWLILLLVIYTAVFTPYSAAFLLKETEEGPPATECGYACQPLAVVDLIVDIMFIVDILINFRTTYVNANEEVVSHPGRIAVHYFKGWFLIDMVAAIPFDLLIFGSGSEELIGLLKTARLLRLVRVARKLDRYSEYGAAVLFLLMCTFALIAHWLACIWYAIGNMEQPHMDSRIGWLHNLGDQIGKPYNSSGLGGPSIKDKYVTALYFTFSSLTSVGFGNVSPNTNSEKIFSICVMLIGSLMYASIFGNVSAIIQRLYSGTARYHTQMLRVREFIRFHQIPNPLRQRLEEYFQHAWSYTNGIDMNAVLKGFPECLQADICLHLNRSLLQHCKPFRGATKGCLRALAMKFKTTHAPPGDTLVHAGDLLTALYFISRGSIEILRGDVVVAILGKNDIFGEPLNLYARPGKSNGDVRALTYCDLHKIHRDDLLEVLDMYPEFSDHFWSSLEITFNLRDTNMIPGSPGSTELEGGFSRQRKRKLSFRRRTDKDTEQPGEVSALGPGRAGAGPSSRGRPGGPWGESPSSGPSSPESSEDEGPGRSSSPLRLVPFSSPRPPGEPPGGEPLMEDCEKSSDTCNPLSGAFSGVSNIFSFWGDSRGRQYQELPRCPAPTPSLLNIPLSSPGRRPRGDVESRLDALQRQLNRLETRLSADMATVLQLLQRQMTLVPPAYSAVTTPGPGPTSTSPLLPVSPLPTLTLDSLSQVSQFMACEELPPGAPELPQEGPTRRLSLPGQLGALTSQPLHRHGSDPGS
human cardiac L-type Ca channel (α1C) and its β subunit, sequence (Q13936 whole entry): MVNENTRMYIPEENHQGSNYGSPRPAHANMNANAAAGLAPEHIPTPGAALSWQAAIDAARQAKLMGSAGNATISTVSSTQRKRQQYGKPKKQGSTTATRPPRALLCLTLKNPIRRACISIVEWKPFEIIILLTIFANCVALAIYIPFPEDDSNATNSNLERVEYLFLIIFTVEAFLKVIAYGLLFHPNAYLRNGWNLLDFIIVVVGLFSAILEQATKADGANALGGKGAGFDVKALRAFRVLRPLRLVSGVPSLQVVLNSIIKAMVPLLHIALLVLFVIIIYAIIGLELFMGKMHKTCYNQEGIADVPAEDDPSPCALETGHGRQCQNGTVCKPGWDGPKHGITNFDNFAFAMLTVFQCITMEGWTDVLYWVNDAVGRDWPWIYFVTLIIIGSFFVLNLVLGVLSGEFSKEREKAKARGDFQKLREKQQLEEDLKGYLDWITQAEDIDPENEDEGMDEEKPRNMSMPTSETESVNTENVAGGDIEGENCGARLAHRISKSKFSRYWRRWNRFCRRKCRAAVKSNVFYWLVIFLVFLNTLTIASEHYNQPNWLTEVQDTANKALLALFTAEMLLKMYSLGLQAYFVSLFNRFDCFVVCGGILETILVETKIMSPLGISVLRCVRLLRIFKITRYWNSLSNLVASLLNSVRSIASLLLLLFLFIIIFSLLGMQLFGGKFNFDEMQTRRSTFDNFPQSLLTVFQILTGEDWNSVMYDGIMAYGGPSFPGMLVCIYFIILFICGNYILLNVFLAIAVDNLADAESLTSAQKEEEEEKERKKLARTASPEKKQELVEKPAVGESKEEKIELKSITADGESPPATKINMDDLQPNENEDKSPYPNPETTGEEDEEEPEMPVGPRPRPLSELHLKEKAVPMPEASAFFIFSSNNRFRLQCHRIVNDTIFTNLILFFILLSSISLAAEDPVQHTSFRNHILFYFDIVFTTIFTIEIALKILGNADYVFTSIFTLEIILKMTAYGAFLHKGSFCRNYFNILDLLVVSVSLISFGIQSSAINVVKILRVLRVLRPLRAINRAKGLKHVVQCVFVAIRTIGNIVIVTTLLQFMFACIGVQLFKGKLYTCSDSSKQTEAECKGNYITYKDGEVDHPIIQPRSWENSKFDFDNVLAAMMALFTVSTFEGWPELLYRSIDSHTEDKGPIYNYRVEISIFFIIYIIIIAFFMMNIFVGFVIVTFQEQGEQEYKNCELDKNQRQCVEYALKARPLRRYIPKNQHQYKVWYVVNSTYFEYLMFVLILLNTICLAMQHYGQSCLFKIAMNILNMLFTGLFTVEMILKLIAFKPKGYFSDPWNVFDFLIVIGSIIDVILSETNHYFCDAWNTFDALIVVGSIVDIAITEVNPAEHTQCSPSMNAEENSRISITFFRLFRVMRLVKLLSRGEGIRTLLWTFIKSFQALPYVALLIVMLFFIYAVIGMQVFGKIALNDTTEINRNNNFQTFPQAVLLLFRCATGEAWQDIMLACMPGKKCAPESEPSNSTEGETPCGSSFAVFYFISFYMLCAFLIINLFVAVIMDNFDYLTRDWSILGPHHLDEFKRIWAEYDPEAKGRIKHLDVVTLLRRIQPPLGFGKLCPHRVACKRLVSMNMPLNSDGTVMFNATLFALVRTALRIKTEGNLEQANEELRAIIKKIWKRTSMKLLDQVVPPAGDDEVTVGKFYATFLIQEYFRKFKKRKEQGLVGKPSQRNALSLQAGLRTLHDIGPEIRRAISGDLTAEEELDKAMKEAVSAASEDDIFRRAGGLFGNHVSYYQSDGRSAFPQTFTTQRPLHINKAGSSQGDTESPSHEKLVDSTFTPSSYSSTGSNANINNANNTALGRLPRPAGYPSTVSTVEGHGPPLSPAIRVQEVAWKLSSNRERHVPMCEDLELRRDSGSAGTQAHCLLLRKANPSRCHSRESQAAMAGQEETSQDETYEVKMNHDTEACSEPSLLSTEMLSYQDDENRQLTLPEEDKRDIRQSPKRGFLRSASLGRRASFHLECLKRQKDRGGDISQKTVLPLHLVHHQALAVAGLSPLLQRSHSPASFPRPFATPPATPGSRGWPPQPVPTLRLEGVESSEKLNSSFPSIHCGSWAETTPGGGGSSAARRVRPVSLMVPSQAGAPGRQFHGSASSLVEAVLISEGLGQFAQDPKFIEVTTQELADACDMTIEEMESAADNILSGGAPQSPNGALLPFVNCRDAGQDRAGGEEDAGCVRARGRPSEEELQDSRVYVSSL
human cardiac L-type Ca channel (α1C) and its β subunit, sequence (Q08289 whole entry partner): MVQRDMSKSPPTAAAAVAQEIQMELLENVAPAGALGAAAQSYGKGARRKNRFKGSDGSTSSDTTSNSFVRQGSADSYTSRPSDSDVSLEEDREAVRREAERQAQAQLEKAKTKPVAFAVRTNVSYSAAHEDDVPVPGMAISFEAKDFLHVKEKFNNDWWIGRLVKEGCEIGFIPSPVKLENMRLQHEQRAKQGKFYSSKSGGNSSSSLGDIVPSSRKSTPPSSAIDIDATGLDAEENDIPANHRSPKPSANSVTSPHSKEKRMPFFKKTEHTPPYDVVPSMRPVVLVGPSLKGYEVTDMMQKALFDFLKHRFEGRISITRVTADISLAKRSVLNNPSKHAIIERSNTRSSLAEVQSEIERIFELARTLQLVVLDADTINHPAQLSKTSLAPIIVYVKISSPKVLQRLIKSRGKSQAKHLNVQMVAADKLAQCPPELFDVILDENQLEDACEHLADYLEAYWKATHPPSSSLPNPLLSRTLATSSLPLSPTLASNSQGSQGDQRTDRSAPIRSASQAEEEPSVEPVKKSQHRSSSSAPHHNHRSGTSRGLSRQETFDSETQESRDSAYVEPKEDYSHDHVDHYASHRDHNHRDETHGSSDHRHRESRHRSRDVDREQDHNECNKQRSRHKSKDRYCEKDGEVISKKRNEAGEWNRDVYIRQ

In the case of `CC(C)[C@@H](NC(=O)NCC(C)(C)O)C(=O)N1CC[C@](O)(c2ccc(Cl)cc2)C(C)(C)C1` [Compound I], the fraction unbound (commonly the share of the substance not bound to proteins or other matrix) was 0.13 in the data set “Protein binding, rabbit” and 0.19 in the data set “Protein binding, human”. Further, the inhibition at 30 µM on hERG was 29%. The “Ca, % inh” value in data set [1] was determined as 29% @ 30 μM.
